Reference: article PMC3608651, “A Broad Profile of Co-Dominant Epitopes Shapes the Peripheral Mycobacterium tuberculosis Specific CD8+ T-Cell Immune Response in South African Patients with Active Tuberculosis” (PLoS ONE, 2013)

Columns and labels:
Type in all cases: binding
HLA-A*30:02 [1] = target: T1, HLA-A*30:02 (Homo sapiens, UniProt P04439, D101N/D140H/D185E/E176R/F33S/G80R/H175R/K168Q/Q94H/R138E/R41S/V100E); settings: percent relative the binding of positive control peptide […]; duplicated experiments; positive binder >40%
HLA-A*30:02 [2] = target: T1, HLA-A*30:02; settings: time points 0-8 h
HLA-B*58:01 [3] = target: T2, HLA-B*58:01 (Homo sapiens, UniProt P01889, A329T/C349S/D201E/D98Y/E176V/E187L/E204Q/E69T/G107R/I218V/I90N/K202T/L105A/L119I/N104I/N87E/Q89R/Q94S/R106L/R155S/R180L/R86G/S101N/S121R/S35A/S48A/T118I/V127L/V306I/V36M/Y140S/Y91M)
HLA-B*07:02 [4] = target: T3, HLA-B*07:02 (Homo sapiens, UniProt P01889); assay: affinity assay (ED50); settings: peptide titrated 10−4 to 10−9 M
HLA-A*68:01 [5] = target: T4, HLA-A*68:01 (Homo sapiens, UniProt P04439, A269V/D185E/E176V/E277Q/E87N/F33Y/G231S/I121M/I166T/I218V/L180W/L300P/L318F/N151K/P208A/P217A/Q86R/R169H/T345S); settings: percent relative the binding of positive control peptide […]; duplicated experiments; positive binder >40%
HLA-A*02:01 [6] = target: T5, HLA-A*02:01 (Homo sapiens, UniProt P04439, D140Y/D185E/D98H/E176V/E277Q/G131W/G231S/I119V/I121R/I166T/I218V/L300P/L318F/N151K/N90K/P208A/P217A/Q86G/Q94H/R138H/R169H/T345S); settings: time points 0-8 h; time when 50% of peptide has dissociated
HLA-A*30:01 [7] = target: T6, HLA-A*30:01 (Homo sapiens, UniProt P04439, D140H/D185E/E176W/F33S/G80R/H175R/K168Q/R138E/R41S); settings: percent relative the binding of positive control peptide […]; duplicated experiments; positive binder >40%
HLA-B*07:02 [8] = target: T3, HLA-B*07:02; assay: off-rate assay (t1/2); settings: time points 0-8 h
HLA-A*30:01 [9] = target: T6, HLA-A*30:01; assay: affinity assay (ED50); settings: peptide titrated 10−4 to 10−9 M
HLA-C*07:01 [10] = target: T7, HLA-C*07:01 (Homo sapiens, UniProt P10321, K90N/S123Y); assay: off-rate assay (t1/2); settings: time points 0-8 h
HLA-A*30:02 [11] = target: T1, HLA-A*30:02
HLA-A*24:02 [12] = target: T8, HLA-A*24:02 (Homo sapiens, UniProt P04439, D101N/D140Y/D185E/E176V/E190D/F33S/G103R/G107R/I119L/I121M/I306V/K335N/L105A/L180Q/L300P/N151K/N90K/Q86E/Q94H/R106L/R138H/R89G/T104I/T345S/V100E/W191G/Y123F); settings: time points 0-8 h
HLA-C*07:01 [13] = target: T7, HLA-C*07:01; settings: percent relative the binding of positive control peptide […]; duplicated experiments; positive binder >40%
HLA-A*24:02 [14] = target: T8, HLA-A*24:02
HLA-A*02:01 [15] = target: T5, HLA-A*02:01; settings: percent relative the binding of positive control peptide […]; plate-bound monomer 0.5 µg/ml; duplicated experiments; positive binder >40%
HLA-A*02:01 [16] = target: T5, HLA-A*02:01; settings: […]; peptide quantity for 50% binding saturation
HLA-C*07:01 [17] = target: T7, HLA-C*07:01; assay: affinity assay (ED50)
HLA-B*58:01 [18] = target: T2, HLA-B*58:01; settings: time points 0-8 h
HLA-A*24:02 [19] = target: T8, HLA-A*24:02; settings: percent relative the binding of positive control peptide […]; duplicated experiments; positive binder >40%
HLA-B*58:01 [20] = target: T2, HLA-B*58:01; settings: percent relative the binding of positive control peptide […]; duplicated experiments; positive binder >40%
HLA-A*30:01 [21] = target: T6, HLA-A*30:01; assay: off-rate assay (t1/2); settings: time points 0-8 h
HLA-B*07:02 [22] = target: T3, HLA-B*07:02; settings: percent relative the binding of positive control peptide […]; duplicated experiments; positive binder >40%
HLA-A*68:01 [23] = target: T4, HLA-A*68:01; settings: time points 0-8 h
HLA-A*68:01 [24] = target: T4, HLA-A*68:01

VANNT RLWV
Bind A*30:02 (HLA-A*30:02 [1]): 171% | O-rate A*30:02 (t1/2) (HLA-A*30:02 [2]): 48 min | Aff B*58:01 (ED50) (HLA-B*58:01 [3]): 1e-08 M | Aff B*07:02 (ED50) (HLA-B*07:02 [4]): 6e-07 M | Bind A*68:01 (HLA-A*68:01 [5]): 3% | O-rate A*02:01 (t1/2) (HLA-A*02:01 [6]): 150 min | Bind A*30:01 (HLA-A*30:01 [7]): 141% | O-rate B*07:02 (t1/2) (HLA-B*07:02 [8]): 42 min | Aff A*30:01 (ED50) (HLA-A*30:01 [9]): 3E -08 M | O-rate C*07:01 (t1/2) (HLA-C*07:01 [10]): 36 min | Aff A*30:02 (ED50) (HLA-A*30:02 [11]): 1e-07 M | O-rate A*24:02 (t1/2) (HLA-A*24:02 [12]): 18 min | Bind C*07:01 (HLA-C*07:01 [13]): 69% | Aff A*24:02 (ED50) (HLA-A*24:02 [14]): 4 µM | Bind A*02:01 (HLA-A*02:01 [15]): 77% | Aff A*02:01 (ED50) (HLA-A*02:01 [16]): 5E -07 M | Aff C*07:01 (ED50) (HLA-C*07:01 [17]): 3E -07 M | O-rate B*58:01 (t1/2) (HLA-B*58:01 [18]): 114 min | Bind A*24:02 (HLA-A*24:02 [19]): 58% | Bind B*58:01 (HLA-B*58:01 [20]): 49% | O-rate A*30:01 (t1/2) (HLA-A*30:01 [21]): 30 min | Bind B*07:02 (HLA-B*07:02 [22]): 61%

MGRDIKVQF
Bind A*30:02 (HLA-A*30:02 [1]): 61% | O-rate A*30:02 (t1/2) (HLA-A*30:02 [2]): 18 min | Aff B*58:01 (ED50) (HLA-B*58:01 [3]): 3e-07 M | Aff B*07:02 (ED50) (HLA-B*07:02 [4]): 8e-07 M | Bind A*68:01 (HLA-A*68:01 [5]): 10% | Bind A*30:01 (HLA-A*30:01 [7]): 0% | O-rate B*07:02 (t1/2) (HLA-B*07:02 [8]): 18 min | O-rate C*07:01 (t1/2) (HLA-C*07:01 [10]): 12 min | Aff A*30:02 (ED50) (HLA-A*30:02 [11]): 7e-08 M | Bind C*07:01 (HLA-C*07:01 [13]): 68% | Bind A*02:01 (HLA-A*02:01 [15]): 0% | Aff C*07:01 (ED50) (HLA-C*07:01 [17]): 8e-08 M | O-rate B*58:01 (t1/2) (HLA-B*58:01 [18]): 18 min | Bind A*24:02 (HLA-A*24:02 [19]): 25% | Bind B*58:01 (HLA-B*58:01 [20]): 61% | Bind B*07:02 (HLA-B*07:02 [22]): 41%

YAGSLSALL
Bind A*30:02 (HLA-A*30:02 [1]): 64% | O-rate A*30:02 (t1/2) (HLA-A*30:02 [2]): 54 min | Aff B*58:01 (ED50) (HLA-B*58:01 [3]): 3E -08 M | Aff B*07:02 (ED50) (HLA-B*07:02 [4]): 1e-05 M | Bind A*68:01 (HLA-A*68:01 [5]): 13% | Bind A*30:01 (HLA-A*30:01 [7]): 0% | O-rate B*07:02 (t1/2) (HLA-B*07:02 [8]): 36 min | Aff A*30:02 (ED50) (HLA-A*30:02 [11]): 2e-07 M | O-rate A*24:02 (t1/2) (HLA-A*24:02 [12]): 72 min | Bind C*07:01 (HLA-C*07:01 [13]): 19% | Aff A*24:02 (ED50) (HLA-A*24:02 [14]): 1 µM | Bind A*02:01 (HLA-A*02:01 [15]): 66% | O-rate B*58:01 (t1/2) (HLA-B*58:01 [18]): 42 min | Bind A*24:02 (HLA-A*24:02 [19]): 81% | Bind B*58:01 (HLA-B*58:01 [20]): 58% | Bind B*07:02 (HLA-B*07:02 [22]): 41%

WL S ANR AV K
Bind A*30:02 (HLA-A*30:02 [1]): 6% | Aff B*07:02 (ED50) (HLA-B*07:02 [4]): 2E -06 M | Bind A*68:01 (HLA-A*68:01 [5]): 139% | Bind A*30:01 (HLA-A*30:01 [7]): 179% | O-rate B*07:02 (t1/2) (HLA-B*07:02 [8]): 42 min | Aff A*30:01 (ED50) (HLA-A*30:01 [9]): 1E -06 M | O-rate A*68:01 (t1/2) (HLA-A*68:01 [23]): 126 min | Bind C*07:01 (HLA-C*07:01 [13]): 16% | Bind A*02:01 (HLA-A*02:01 [15]): 13% | Bind A*24:02 (HLA-A*24:02 [19]): 40% | Bind B*58:01 (HLA-B*58:01 [20]): 1% | Aff A*68:01 (ED50) (HLA-A*68:01 [24]): 2E -07 M | O-rate A*30:01 (t1/2) (HLA-A*30:01 [21]): 30 min | Bind B*07:02 (HLA-B*07:02 [22]): 49%

AMKGDLQSS
Bind A*30:02 (HLA-A*30:02 [1]): 47% | O-rate A*30:02 (t1/2) (HLA-A*30:02 [2]): 120 min | Bind A*68:01 (HLA-A*68:01 [5]): 0% | O-rate A*02:01 (t1/2) (HLA-A*02:01 [6]): 102 min | Bind A*30:01 (HLA-A*30:01 [7]): 129% | Aff A*30:01 (ED50) (HLA-A*30:01 [9]): 2E -06 M | Aff A*30:02 (ED50) (HLA-A*30:02 [11]): 1E -07 M | O-rate A*24:02 (t1/2) (HLA-A*24:02 [12]): 18 min | Bind C*07:01 (HLA-C*07:01 [13]): 23% | Aff A*24:02 (ED50) (HLA-A*24:02 [14]): 400 µM | Bind A*02:01 (HLA-A*02:01 [15]): 89% | Aff A*02:01 (ED50) (HLA-A*02:01 [16]): 2E -07 M | Bind A*24:02 (HLA-A*24:02 [19]): 42% | Bind B*58:01 (HLA-B*58:01 [20]): 0% | O-rate A*30:01 (t1/2) (HLA-A*30:01 [21]): 30 min | Bind B*07:02 (HLA-B*07:02 [22]): 9%

LSMAGSSAM
Bind A*30:02 (HLA-A*30:02 [1]): 79% | O-rate A*30:02 (t1/2) (HLA-A*30:02 [2]): 66 min | Aff B*07:02 (ED50) (HLA-B*07:02 [4]): 3E -07 M | Bind A*68:01 (HLA-A*68:01 [5]): 51% | O-rate A*02:01 (t1/2) (HLA-A*02:01 [6]): 84 min | Bind A*30:01 (HLA-A*30:01 [7]): 0% | O-rate B*07:02 (t1/2) (HLA-B*07:02 [8]): 156 min | O-rate A*68:01 (t1/2) (HLA-A*68:01 [23]): 132 min | O-rate C*07:01 (t1/2) (HLA-C*07:01 [10]): 72 min | Aff A*30:02 (ED50) (HLA-A*30:02 [11]): 3E -06 M | Bind C*07:01 (HLA-C*07:01 [13]): 71% | Bind A*02:01 (HLA-A*02:01 [15]): 72% | Aff A*02:01 (ED50) (HLA-A*02:01 [16]): 2e-07 M | Aff C*07:01 (ED50) (HLA-C*07:01 [17]): 3E -06 M | Bind A*24:02 (HLA-A*24:02 [19]): 14% | Bind B*58:01 (HLA-B*58:01 [20]): 0% | Aff A*68:01 (ED50) (HLA-A*68:01 [24]): 1E -06 M | Bind B*07:02 (HLA-B*07:02 [22]): 92%
